Laboratory results published in patent publication US20020177168A1, “Chemical sensor and method of detecting chemicals” (priority 2000, published 2002).

Legend:
OBPb [1] = target: T1, OBPb (Bos taurus, UniProt P07435); assay: Dissociation constant KD of odorant for OBPb; assay type: binding, bovine; details: affinity of odorant for OBPb
T1 sequence (P07435 1-159): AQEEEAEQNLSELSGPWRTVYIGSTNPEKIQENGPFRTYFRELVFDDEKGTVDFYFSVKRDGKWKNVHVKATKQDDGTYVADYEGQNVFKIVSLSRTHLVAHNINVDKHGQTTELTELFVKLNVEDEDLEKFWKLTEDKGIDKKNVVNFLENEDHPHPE

[2] = target: T2, bovine derivation odorant binding protein (OBPb) (Bos taurus, UniProt P07435); assay: Fluorometry of tryptophane fluorescence of OBPb with four odorants (Inventive Example 1); details: for affinity for the OBPb (relative, among the four odorants): FIG. 4(b); for reduction of the fluorescence intensity: odorant 10 μM, OBPb 250 nM, excitation 280 nm, fluorescence 340 nm, among the four odorants, FIG. 4(b) at 10 minutes
T2 sequence (P07435 1-159): T1 sequence (P07435 1-159)
Description: In order to prepare the OBPb solution employed for Inventive Example 1, bovine derivation odorant binding protein (OBPb) was first dissolved in a phosphate buffer (PBS; phosphate buffered saline), and PBS was further added to this OBPb solution for diluting the same until the concentration of the solution reached 250 nM.
In order to prepare the odorant solution employed for Inventive Example 1, four types of odorants, i.e., dimethyl octanol (DMO), citronellal, citronellol and geraniol were dissolved in ethanol solutions (EtOH) respectively, for preparing an odorant solution of 10^−2 M in concentration as to each odorant.
300 μl of the OBPb solution of 250 nM in concentration and 0.3 μl of each odorant solution of 10^−2 M in concentration prepared in the aforementioned manner were mixed with each other for preparing a sample solution employed for measuring fluorescence intensity as to each of the four types of odorants. In this case, the final concentration of the odorant in each sample solution is 10 μM. A sample of only OBPb containing no odorant, i.e., that obtained by mixing an OBPb solution and an ethanol solution with each other, was also prepared as a comparative sample.
Each sample solution prepared in the aforementioned manner was introduced into a quartz cell for fluorescence while sealing an opening for preventing evaporation. The aforementioned cell was set in a cell holder of a fluorometer (F-4000 by Hitachi, Ltd.) and left to stand for 10 minutes for temperature balancing.
In measurement of the fluorescence intensity of each sample solution, a shutter of the fluorometer was first opened for irradiating the sample solution with light of 280 nm in wavelength from a slit of 10 nm in width and exciting tryptophane constituting the OBPb contained in the sample solution. Fluorescence of 340 nm in wavelength obtained from the tryptophane excited in this manner was taken out through the slit of 10 nm in width, for measuring the intensity of the obtained fluorescence.
In this case, the switching time for the shutter of the fluorometer was set to two seconds for opening/closing the shutter at intervals of five minutes and measuring the fluorescence intensity of the sample solution over 30 minutes.
Referring to FIG. 4, the point of initiation of measurement is set to the point of the elapsed time of 0 minutes, and the fluorescence intensity of the sample solution at this point is set to 100%. Thus, the fluorescence intensity at the elapsed time of 0 minutes, i.e., the point of initiation of measurement was set to 100% as to each sample solution for regarding this as a reference value and calculating a relative value of the fluorescence at each point every five minutes on the basis of this reference value.

[3] = target: T3, OBPb-norm central pocket CP (Bos taurus, UniProt P07435); assay: Time variation of peaks of tryptophane difference fluorescence spectra, OBPb-norm; assay type: binding, bovine; details: 0 to 60 minutes after addition
T3 sequence (P07435 1-159): T1 sequence (P07435 1-159)
From the text: (§1) Then, time variations of peaks of fluorescence spectra of tryptophane in central pockets CP bonded with odorants were investigated as to DMO and geraniol employed as odorants.
(§2) When tryptophane is in OBPb, the peak wavelength of the fluorescence spectrum of tryptophane is 345 nm. In general, the fluorescence wavelength of tryptophane shifts to a longer wavelength in hydrophilic environment, and shifts to a shorter wavelength in hydrophobic environment. At this point, a fluorescence spectrum upon bonding with an odorant was measured for calculating difference between the same and a spectrum at 0 minutes and investigating the relation between the peak intensity and the elapsed time.
(§3) The difference spectrum was calculated by subtracting the fluorescence spectrum at each time from the fluorescence spectrum at 0 minutes. When a peak of the fluorescence spectrum at a certain time shifts to a shorter wavelength beyond 345 nm (i.e., rendered hydrophobic), therefore, it follows that the peak of the difference spectrum shifts to a longer wavelength beyond 345 nm to the contrary.

OBPb-norm (normal OBPb) = target: T4, OBPb-norm (normal OBPb) (Bos taurus, UniProt P07435); assay: Relative tryptophane fluorescence intensity change after DMO addition, OBPb-norm; assay type: binding, bovine; details: DMO 10 μM, OBPb 250 nM, 25 degrees, ex 295 nm, em 340 nm
T4 sequence (P07435 1-159): T1 sequence (P07435 1-159)
Description: (§4) OBPb-norm shown in FIG. 7(a) is normal (unvaried) OBPb. OBPb-del shown in FIG. 7(b) is OBPb obtained by deleting Phe (phenylalanine) 149 up to Glu (glutamic acid) 159.
(§5) As to the OBPb-norm and the OBP-del, the relation between post-addition elapsed times and change of relative fluorescence intensity was investigated by adding dimethyl octanol (DMO) employed as an odorant to OBPb solutions.
(§6) The concentration of OBPb in PBS was set to 250 nM, and the concentration of a DMO solution was set to 10 μM. The DMO solution was added to the OBPb solution, which in turn was thereafter incubated at 25 degrees, for taking out part at each time and measuring fluorescence (excitation wavelength: 295 nm, fluorescence wavelength: 340 nm) of tryptophane present in the central pocket CP.
(§7) The difference in relative fluorescence intensity was calculated by dividing the difference between fluorescence intensity at a time 0 and fluorescence intensity at each time by the fluorescence intensity at the time 0.

OBP-del = target: T5, OBP-del (Bos taurus, UniProt P07435); assay: Time variation of peaks of tryptophane difference fluorescence spectra, OBP-del; assay type: binding, bovine; details: during bonding reaction, 0 to 60 minutes
T5 construct: made in house
T5 sequence (P07435 1-148): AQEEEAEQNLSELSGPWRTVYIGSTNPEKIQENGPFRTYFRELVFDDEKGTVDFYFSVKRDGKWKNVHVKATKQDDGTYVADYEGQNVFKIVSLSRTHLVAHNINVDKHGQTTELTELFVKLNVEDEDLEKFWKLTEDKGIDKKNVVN
From the text: as §1, §2, §3

OBPb bonded with AMA = target: T6, OBPb bonded with AMA (Bos taurus, UniProt P07435); assay: Substitution of AMA bonded to OBPb by other odorants (AMA and tyrosine fluorescence); assay type: binding, bovine; details: for fluorescence intensity of tyrosine on adding the odorant: ex 250 nm, em 300 nm, immediately after addition (0 minutes); for fluorescence intensity of AMA / dissociation of AMA from OBPb on adding the odorant: ex 295 nm, em 481 nm, 0 minutes
T6 sequence (P07435 1-159): T1 sequence (P07435 1-159)
Description: Further, investigation was made as to how an odorant once bonded to OBPb behaves when other odorants are thereafter bonded. Aminoanthracene (AMA) which is a fluorescent odorant was employed as a previously bonded odorant, and DMO and geraniol were used as odorants added to the AMA bond.
(§8) An OBPb solution of 10 μM in concentration was prepared. AMA, DMO and geraniol were dissolved in ethanol respectively, for preparing an AMA solution, a DMO solution and a geraniol solution of 10^−2 M in concentration.
First, 0.1 μl of an AMA solution was added to 100 μl of an OBPb solution, and left to stand at 25° C. for one hour for bonding AMA to OBPb. Phosphate buffer saline (PBS) was added to this solution up to 4 ml (diluted to 40 times), 4 μl of ethanol, DMO or geraniol was added and thereafter parts of 300 μl were taken out after lapses of 0, 5, 10, 15, 20, 25, 30, 40 and 60 minutes for measuring fluorescence intensity of AMA (excitation wavelength: 295 nm, measurement wavelength: 481 nm) and fluorescence intensity of […].
In measurement of the fluorescence intensity of tyrosine, the excitation wavelength is 250 nm, and the measurement wavelength is 300 nm. Tyrosine is present in an internal cavity of a monomer of OBPb. Therefore, dissociation of the odorant from the internal cavity IC can be measured by change of the fluorescence intensity of tyrosine (the fluorescence reduces when tyrosine becomes hydrophilic).

[4] = target: T2, bovine derivation odorant binding protein (OBPb); assay: Fluorometry of OBPb with DMO and BPA at different concentrations (Inventive Example 2); details: for attenuation of fluorescence intensity versus concentration: 10^−9 to 10^−6 M
Description: In preparation of the OBPb solution employed for Inventive Example 2, an OBPb solution of 250 nM in concentration was prepared by a method similar to that in Inventive Example 1.
In preparation of the DMO solutions and the BPA solutions employed for Inventive Example 2, on the other hand, two types of odorants of DMO and BPA were dissolved in ethanol (EtOH) respectively, for preparing a solution of 10^−2 M in concentration as to each odorant. Further, the DMO solution and the BPA solution of 10^−2 M in concentration prepared in the aforementioned manner were diluted with EtOH respectively, thereby preparing solutions of 10^−3 M, 10^−4 M, 10^−5 M and 10^−6 M in concentration respectively. Thus, DMO solutions and BPA solutions of 10^−3 M, 10^−4 M, 10^−5 M and 10^−6 M in concentration were prepared.
300 μl of the OBPb solution of 250 nM in concentration and 0.3 μl of each of the DMO solutions of 10^−3 M, 10^−4 M, 10^−5 M and 10^−6 M in concentration prepared in the aforementioned manner were mixed with each other thereby preparing sample solutions having final DMO concentrations of 10^−9 M, 10^−8 M, 10^−7 M and 10^−6 M respectively. Sample solutions having final concentrations of 10^−9 M, 10^−8 M, 10^−7 M and 10^−6 M respectively were prepared also as to BPA by a preparation method similar to that for the case of DMO.
After preparing the sample solutions in the aforementioned manner, the fluorescence intensity was measured as to each sample solution by a method similar to that in Inventive Example 1. Further, the relation between the concentrations and the fluorescence intensity of DMO and BPA was investigated on the basis of results at a point after a lapse of 20 minutes from initiation of measurement and at a point after a lapse of 30 minutes from initiation of measurement among results obtained by measuring the fluorescence intensity.
Also in this case, the point of initiation of measurement was set to the point of an elapsed time of 0 minutes while setting the fluorescence intensity at this point to 100% as a reference value for calculating a relative value of the fluorescence intensity at each point on the basis of this reference value.

[5] = target: T7, OBPb-del (OBPb with Phe 149 up to Glu 159 deleted) (Bos taurus, UniProt P07435); assay: Relative tryptophane fluorescence intensity change after DMO addition, OBP-del; assay type: binding, bovine; details: DMO 10 μM, OBPb 250 nM, 25 degrees, ex 295 nm, em 340 nm
T7 construct: made in house
T7 sequence (P07435 1-148): T5 sequence (P07435 1-148)
Description: as §4, §5, §6, §7

OBPb [6] = target: T1, OBPb; assay: Time variation of tryptophane and AMA fluorescence upon addition of AMA to OBPb; assay type: binding, bovine; details: ex 295 nm
Description: as §8
Then, time variations of fluorescence from AMA and fluorescence from tryptophane upon addition of AMA were measured. FIG. 13 illustrates results of measurement of fluorescence intensity change of tryptophane bonded with AMA. The excitation wavelength for tryptophane is 295 nm, and the fluorescence wavelength is 340 nm. FIG. 14 illustrates results of measurement of fluorescence intensity change of AMA bonded with […]. The excitation wavelength for AMA is 295 nm, and the fluorescence wavelength is 480 nm. Referring to FIGS. 13 and 14, the horizontal axes show post-addition elapsed times, and the vertical axis show relative fluorescence intensity difference levels. The relative fluorescence intensity difference was calculated by dividing the difference between fluorescence intensity at a time 0 and fluorescence intensity at each time by the fluorescence intensity at the time 0.

Structure (SMILES)	Kd (OBPb [1])	affinity for the OBPb (relative, among the four odorants) [2]	reduction of the fluorescence intensity [2]	bonding to the central pocket CP (from peak wavelengths of difference spectra) [3]	relative fluorescence intensity change of tryptophane with time (OBPb-norm (normal OBPb))	peak wavelengths of the difference spectra of tryptophane (OBP-del)	fluorescence intensity of tyrosine on adding the odorant (OBPb bonded with AMA)	fluorescence intensity of AMA / dissociation of AMA from OBPb on adding the odorant (OBPb bonded with AMA)	attenuation of fluorescence intensity versus concentration ([4]; after 20 and 30 minutes)	range in which discrimination based on the fluorescence intensity is possible ([4]; after 20 and 30 minutes)	range in which discrimination based on the fluorescence intensity is possible ([4]; conversion of 10^−9 M)	relative fluorescence intensity change of tryptophane with time [5]	fluorescence intensity of tryptophane after addition of AMA (OBPb [6]; em 340 nm)	fluorescence intensity of AMA after addition of AMA (OBPb [6]; em 480 nm)
CC(C)CCCC(C)CCO (stereo not shown) [DMO]	~0.3 µM	highest affinity	at the minimum	dissociates after being bonded to the central pocket CP	rises with time	remained unchanged	No change of the fluorescence intensity was observed	AMA dissociates immediately after addition	attenuation of the fluorescence intensity is reduced as the concentration of DMO or BPA is increased	10^−9 M	about 200 ppt	no variation with presence/absence of the odorant		
CC(C)=CCC/C(C)=C/CO [geraniol]	~3 µM	lowest affinity	at the maximum	remains bonded to the central pocket CP		remained unchanged	reduction of the fluorescence intensity was observed	AMA dissociates immediately after addition						
Nc1cccc2cc3ccccc3cc12 [AMA, Aminoanthracene]	~1.3 µM												temporarily reduces after addition of AMA and thereafter increases	increases after addition of AMA, takes a constant value and thereafter reduces
CC(C)(c1ccc(O)cc1)c1ccc(O)cc1 [BPA, bisphenol A]									attenuation of the fluorescence intensity is reduced as the concentration of DMO or BPA is increased	10^−9 M	about 200 ppt			
